Values joined by “and” are separate entries in the source; they are usually repeats but may differ in a detail not shown here. Identical values can stand only once.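 Cells were grown in 96-well plates and exposed to each compound for 48 hours at five concentrations; endpoints were interpolated linearly between bracketing concentrations, or set to the highest concentration if not reached. At the GI50, growth is halved. TGI marks complete inhibition of growth.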
How the values were obtained:
Assay in all cases: growth of human tumour cells (NCI), 48 h
[1] = test system: NCI-H23 lung
[2] = test system: HT29 colon
[3] = test system: UACC-257 melanoma
[4] = test system: SK-MEL-28 melanoma
[5] = test system: HCT-15 colon
[6] = test system: SF-295 CNS
[7] = test system: MDA-MB-231 breast
[8] = test system: SR leukemia
[9] = test system: HOP-62 NSCLC
[10] = test system: SK-MEL-5 melanoma

Row | Structure (SMILES) | GI50 [1] | TGI [1] | GI50 [2] | TGI [2] | GI50 [3] | TGI [3] | GI50 [4] | TGI [4] | GI50 [5] | TGI [5] | GI50 [6] | TGI [6] | GI50 [7] | TGI [7] | GI50 [8] | TGI [8] | GI50 [9] | TGI [9] | GI50 [10] | TGI [10]
1 | COC(=O)C(C)NP(=O)(OCc1cccc(Cn2cnc3c(N)ncnc32)c1)Oc1ccccc1 (centres undefined) | 66 µM | > 100 µM | > 100 µM | > 100 µM | > 100 µM | > 100 µM | > 100 µM | > 100 µM | > 100 µM | > 100 µM | > 100 µM | > 100 µM | 51.7 µM | > 100 µM | 55.4 µM | > 100 µM | > 100 µM | > 100 µM | 54.1 µM | > 100 µM
2 | C/C=C(/CCC1NCCc2c1[nH]c1ccccc21)[Si](C)(C)C (centres undefined) | 87.1 µM and 11.1 µM | > 100 µM and 25.5 µM |  |  |  |  |  |  |  | 18.5 µM |  | > 100 µM and 19.2 µM |  |  |  |  |  | > 100 µM and 26.7 µM |  | > 100 µM and 11.8 µM
3 | O=c1c(-c2ccccc2)c(SCCCN2CCCCC2)n(-c2ccccc2)c(=S)n1-c1ccccc1 |  | 42.9 µM |  |  |  | 31.9 µM |  | 33.2 µM |  | 38.7 µM |  | 32.1 µM |  | 27.9 µM |  | 37.3 µM |  | 32.7 µM |  | 30.8 µM
4 | O=c1[nH]c2ccccc2c2oc3ccccc3c12 |  | > 100 µM |  | > 100 µM |  | > 100 µM |  | > 100 µM |  | > 100 µM |  | > 100 µM |  | > 100 µM |  | > 100 µM |  | > 100 µM |  | > 100 µM
5 | COC(=O)C1=C(O)C(C(=O)OC)[C@@]2(O)[C@@H](C(=O)OC)[C@H](C)C[C@@H]1[C@@H]2C(=O)OC (some centres undefined) |  | > 100 µM |  | 71.3 µM |  | > 100 µM |  | > 100 µM |  | 92.6 µM |  |  |  | 40.3 µM |  | > 100 µM |  | > 100 µM |  | 
6 | NCCCCNOCCCN |  | > 100 µM |  | > 100 µM |  | > 100 µM |  | > 100 µM |  |  |  | > 100 µM |  |  |  | > 100 µM |  |  |  | > 100 µM
7 | CC(C)(CCCCC(C)(C)NC1=NCCO1)NC1=NCCO1 |  | > 10 µM |  | > 10 µM |  |  |  | > 10 µM |  | > 10 µM |  | > 10 µM |  | > 10 µM |  | > 10 µM |  | > 10 µM |  | > 10 µM
8 | CC(C)(C)OC(=O)CC(NC(=O)OCc1ccccc1)NC(=O)OC(C)(C)C (centres undefined) | 39.1 µg/mL |  |  |  | 35.8 µg/mL |  | 67.6 µg/mL |  | 56 µg/mL |  | 46.2 µg/mL |  | 52.8 µg/mL |  | 27.8 µg/mL | 67.7 µg/mL |  |  |  | 
9 | C=CCN1C(=O)NC(=O)/C(=C/c2c3ccccc3cc3ccccc23)C1=O |  | > 10 µM |  | 37.9 µM |  |  |  | 68.1 µM |  |  |  | 38.3 µM |  |  |  | 74 µM |  | 33.2 µM |  | > 10 µM
